According to ChEMBL document CHEMBL3217711, “Erythromycin B: conformational analysis and antibacterial activity” (2011):
Converted amounts (≈) assume the structure as drawn. The source made the active and inactive calls. The calls are words filed in the database; no cut-off is given here.

Tests used:
[1] = tested on: Burkholderia cepacia; assay: Antimicrobial activity against Burkholderia cepacia after 24 hrs by broth microdilution method; assay type: functional, organism-based
[2] = tested on: Haemophilus influenzae; assay: Antimicrobial activity against Haemophilus influenzae ATC 12699 compound preincubated with 0.1 M hydrochoric acid for 40 mins measured after 24 hrs by broth microdilution method; assay type: functional
[3] = tested on: Burkholderia cepacia; assay: Antimicrobial activity against Burkholderia cepacia compound preincubated with 0.1 M hydrochoric acid for 40 mins measured after 24 hrs by broth microdilution method; assay type: functional, organism-based
[4] = tested on: Escherichia coli; assay: Binding affinity to Escherichia coli MRE 600 30S ribosome in 2M LiCl in buffered D2O at pH 7.4 by NMR analysis
[5] = tested on: Escherichia coli; assay: Binding affinity to Escherichia coli MRE 600 50S ribosome in 2M LiCl in buffered D2O at pH 7.4 by NMR analysis
[6] = tested on: Staphylococcus aureus; assay: Antimicrobial activity against Staphylococcus aureus ACC 601065 after 24 hrs by broth microdilution method; assay type: functional; conditions: ACC 601065, 24 h
[7] = tested on: Streptococcus pyogenes; assay: Antimicrobial activity against Streptococcus pyogenes after 24 hrs by broth microdilution method; assay type: functional
[8] = tested on: Streptococcus pyogenes; assay: Antimicrobial activity against Streptococcus pyogenes compound preincubated with 0.1 M hydrochoric acid for 40 mins measured after 24 hrs by broth microdilution method; assay type: functional
[9] = tested on: Staphylococcus aureus; assay: Antimicrobial activity against Staphylococcus aureus ACC 601065 compound preincubated with 0.1 M hydrochoric acid for 40 mins measured after 24 hrs by broth microdilution method; assay type: functional
[10] = tested on: Haemophilus influenzae; assay: Antimicrobial activity against Haemophilus influenzae ATC 12699 after 24 hrs by broth microdilution method; assay type: functional; conditions: ATC 12699, 24 h

SMILES	MIC [1]	MIC [2]	MIC [3]	Activity [4]	Activity [5]	MIC [6]	MIC [7]	MIC [8]	MIC [9]	MIC [10]
CC[C@H]1OC(=O)[C@H](C)[C@@H](O[C@H]2C[C@@](C)(OC)[C@@H](O)[C@H](C)O2)[C@H](C)[C@@H](O[C@@H]2O[C@H](C)C[C@H](N(C)C)[C@H]2O)[C@](C)(O)C[C@@H](C)C(=O)[C@H](C)[C@@H](O)[C@H]1C [BERYTHROMYCIN]	inactive	3.6 µg/mL (≈ 5.01 µM)	inactive	inactive	Active	0.7 µg/mL (≈ 0.975 µM)	0.2 µg/mL (≈ 0.279 µM)	0.3 µg/mL (≈ 0.418 µM)	1.4 µg/mL (≈ 1.95 µM)	2.3 µg/mL (≈ 3.2 µM)
CC[C@H]1OC(=O)[C@H](C)[C@@H](O[C@H]2C[C@@](C)(OC)[C@@H](O)[C@H](C)O2)[C@H](C)[C@@H](O[C@@H]2O[C@H](C)C[C@H](N(C)C)[C@H]2O)[C@](C)(OC)C[C@@H](C)C(=O)[C@H](C)[C@@H](O)[C@]1(C)O [CLARITHROMYCIN]	inactive	1.8 µg/mL (≈ 2.41 µM)	inactive			0.6 µg/mL (≈ 0.802 µM)	0.2 µg/mL (≈ 0.267 µM)	0.3 µg/mL (≈ 0.401 µM)	0.9 µg/mL (≈ 1.2 µM)	0.6 µg/mL (≈ 0.802 µM)
CC[C@H]1OC(=O)[C@H](C)[C@@H](O[C@H]2C[C@@](C)(OC)[C@@H](O)[C@H](C)O2)[C@H](C)[C@@H](O[C@@H]2O[C@H](C)C[C@H](N(C)C)[C@H]2O)[C@](C)(O)C[C@@H](C)C(=O)[C@H](C)[C@@H](O)[C@]1(C)O [ERYTHROMYCIN]	inactive	> 4 µg/mL	inactive			0.9 µg/mL (≈ 1.23 µM)	0.2 µg/mL (≈ 0.273 µM)	1 µg/mL (≈ 1.36 µM)	> 8 µg/mL	2.2 µg/mL (≈ 3 µM)
